The text below walks through data of article PMC7565640 (Journal of Virology, 2020).

For data set [1], the system named is SARS-CoV-2. The format is cell-based. As to conditions: read-out: IC50 (avg).
In a further data set the test system is Vero E6 cells. The conditions noted are these: read-out: CC50 (avg); 3 days.
Data set [2] has as its system SARS-CoV-2. Type of data set: cell-based.
In data set [3] the test system is SARS-CoV-2. Type of data set: cell-based. This is another data set of the same source.
Data set [4] has as its system clathrin-mediated endocytosis. The conditions noted are these: cited from earlier work.
Another data set concerns SARS-CoV spike. As to conditions: cited from earlier work.
Another data set relates to MERS-CoV spike. The conditions noted are these: cited from earlier work.

Values joined by “and” are separate entries in the source; they are usually repeats but may differ in a detail not shown here. Equal entries are not always repeated. Structures can show the parent of a compound that is named as a salt.

Broadly, the IC50 is the concentration that gives 50% inhibition. `CCN(CC)Cc1cc(Nc2ccnc3cc(Cl)ccc23)ccc1O` [Amodiaquine dihydrochloride dihydrate]: the IC50 in the data set on SARS-CoV-2 [1] was 2.59 µM and 4.94 µM. The CC50 is the concentration giving 50% cytotoxicity. Take `CCN(CC)Cc1cc(Nc2ccnc3cc(Cl)ccc23)ccc1O` [Amodiaquine hydrochloride]: the CC50 with Vero E6 cells was over 38.6 µM. As for `CCN(CC)CCCC(C)Nc1ccnc2cc(Cl)ccc12` (centres unmarked) [Chloroquine phosphate], the half-maximal inhibitory concentration (IC50) in the data set with SARS-CoV-2 [1] is 46.8 µM. Further, the “infectious viral particle production of SARS-CoV-2 (TCID50)” value (“infectious viral particle production” for short) in the data set on SARS-CoV-2 [2] was “can inhibit”. The “production of SARS-CoV-2 N and RdRp mRNA” value with SARS-CoV-2 [3] is “inhibit production”. As to `CN(C)CCCN1c2ccccc2Sc2ccc(Cl)cc21` [Chlorpromazine hydrochloride], in the data set on SARS-CoV-2 [1], the IC50 is 4.03 µM. The “infectious viral particle production” value in the data set with SARS-CoV-2 [2] was “can inhibit”. In data set [4], the clathrin-mediated endocytosis entry was “inhibit”. As for `O=C1NCN(c2ccccc2)C12CCN(CCCC(c1ccc(F)cc1)c1ccc(F)cc1)CC2` [Fluspirilene], the IC50 in the data set on SARS-CoV-2 [1] came out at 5.32 µM. For the compound `CCN(CCO)CCCC(C)Nc1ccnc2cc(Cl)ccc12` (centres unmarked) [Hydroxychloroquine sulfate], in the data set with SARS-CoV-2 [1], the IC50 stood at 11.2 µM. For the same compound, in the data set on SARS-CoV-2 [2], the “infectious viral particle production” value is listed as “can inhibit”. In addition, the “time-of-addition: inhibitory activity on infectious-virus production” value with SARS-CoV-2 [2] (24 h) is listed as “some reduction in inhibitory activity”. Moreover, the “production of SARS-CoV-2 N and RdRp mRNA” value with SARS-CoV-2 [3] was “inhibit production”. For the compound `Cc1ccc(NC(=O)c2ccc(CN3CCN(C)CC3)cc2)cc1Nc1nccc(-c2cccnc2)n1` [Imatinib mesylate], in the data set with SARS-CoV spike, the SARS-CoV spike-mediated entry result is “inhibits”. The MERS-CoV spike-mediated entry entry in the data set with MERS-CoV spike is “inhibits”.

In the case of `OC(c1cc(C(F)(F)F)nc2c(C(F)(F)F)cccc12)C1CCCCN1` (centres unmarked) [Mefloquine hydrochloride], the IC50 in the data set on SARS-CoV-2 [1] came to 8.06 µM.

Take `CC(CN1c2ccccc2Sc2ccccc21)N(C)C` (centres unmarked) [Promethazine hydrochloride]: the IC50 with SARS-CoV-2 [1] is 10.4 µM. With `CC(C)N1CCN(c2ccc(OCC3COC(Cn4cncn4)(c4ccc(Cl)cc4Cl)O3)cc2)CC1` (centres unmarked) [Terconazole], the IC50 with SARS-CoV-2 [1] is 16.1 µM. As for `CCSc1ccc2c(c1)N(CCCN1CCN(C)CC1)c1ccccc1S2` [Thiethylperazine maleate], the IC50 with SARS-CoV-2 [1] was 8.02 µM. On the same count and under the same terms, the result for `CCN(CC)CCOc1ccc(C(O)(Cc2ccc(Cl)cc2)c2ccc(C)cc2)cc1` (centres unmarked) [Triparanol] reads 6.41 µM.
